Series [1] concerns the target T1, CB1-receptor (Homo sapiens, UniProt P21554).
T1 construct: expressed in transfected cells; host or cells: CHO cells, stably transfected with CB1 cDNA (from IMIBIC) and transiently with CRE-luc
The series is described as follows: biochemical. The class given is binding. Particulars: mean ± SEM, n = 3; radioligand [3H]-CP55940.

Series [2] concerns the target T2, CB2-receptor (Homo sapiens, UniProt P34972).
T2 construct: expressed in transfected cells; host or cells: CHO cells, stably transfected with CB2 cDNA (from IMIBIC) and transiently with CRE-luc
Description: Competition binding against [3H]-CP55940, CB2 membranes. Particulars: for Ki: mean ± SEM, n = 3, radioligand [3H]-CP55940; for Selectivity CB2/CB1: ratio of Ki values.

Series [3] deals with T1, CB1-receptor. Description: cAMP-dependent luciferase assay in CHO-CB1-CRE-luc cells. The format is cell-based. The following applies: for CB1-receptor antagonistic activity (fold induction of CRE-luc): 15 min pre-incubation, then 1 µmol/L WIN for 6 h; for Effect on CB1: CHO-CB1-CRE-luc, summary classification; for CB1-receptor agonistic activity (fold induction of CRE-luc): 6 h stimulation with test compound. Here is the method:
(§1) Briefly, CHO cells were stably transfected with CB1- and CB2-receptor complementary DNAs (cDNAs) (kindly provided by IMIBIC). Around 10^5 transfected cells per milliliter were seeded in 24-well plates and transiently transfected with the plasmid CRE-luc using Roti-Fect (Carl Roth, Karlsruhe) following the manufacturer’s instructions. The cells were harvested after 24 h. Two transfected cell types resulted: CHO-CB1-CRE-luc and CHO-CB2-CRE-luc.
(§2) To test for agonistic activity at the CB1-receptor, the CHO-CB1-CRE-luc cells were stimulated for 6 h with increasing concentrations of the test compounds ([Bouaboula et al. 1997]). Forskolin (FSK), a strong CB-receptor-independent activator of adenylyl-cyclase was used at 10 µmol/L as a positive control. To investigate the antagonistic activity, the CHO-CB1-CRE-luc cells were pre-incubated for 15 min with the test compounds before stimulation for 6 h with 1 µmol/L WIN ([Zheng et al. 2013]). To investigate CB2-receptor agonistic activity, CHO-CB2-CRE-luc cells were pre-incubated for 15 min with increasing concentrations of the test substances and then for 6 h with 10 µmol/L FSK. WIN, a non-specific agonist at CB2-receptors, was used as a positive control. To confirm CB2-receptor agonistic activities of the test compounds, CHO-CB2-CRE-luc cells were pre-incubated with the specific CB2-receptor antagonist AM630 (1 µmol/L, 6-iodopravadoline; Cayman, distributed by Biozol, Hamburg) ([Ross et al. 1999]; [Zheng et al. 2013]) and then treated with increasing concentrations of the test substances.
(§3) After the stimulations and incubations, cells were lysed in a solution of 25 mmol Tris-phosphate (pH = 7.8), 8 mmol MgCl2, 1 mmol dithiothreitol (DTT), 1% Triton X-100, and 7% glycerol. The luciferase activity was measured with a Luciferase Assay Kit (Promega, Madison) according to the manufacturer’s instructions using an AutoLumat LB 9501 (Berthold Technologies, Bad Wildbad).

The target of series [4] is T2, CB2-receptor. The series is described as follows: cAMP-dependent luciferase assay in CHO-CB2-CRE-luc cells. The following applies: for CB2-receptor agonistic activity (fold induction of CRE-luc): 15 min pre-incubation, then 10 µmol/L FSK for 6 h; for Effect on CB2: CHO-CB2-CRE-luc, summary classification; for CB2 agonistic effect compared with positive control WIN: same dose as 1 µmol/L WIN. The class given is cell-based. Here is the method:
as §1, §2, §3

In series [5] the test system is NFAT. The series is described as follows: PMA/IO-induced NFAT-luc activation in Jurkat T-cells. Particulars: 0.5–25 µmol/L. The class given is cell-based. Here is the method:
(§4) Jurkat T-cells (10^6 cells per milliliter) were transiently transfected with plasmids that contained an NF-κB-dependent (KBF-luc) or NFAT-dependent (NFAT-luc) promotors fused to the luciferase gene using Lipofectin (Life Technologies, Carlsbad) according to the manufacturer’s instructions ([Yano et al. 1987]; [Durand et al. 1988]). Twenty-four hours after transfection, cells were stimulated for 30 min with increasing doses of the test compounds or WIN as a control (Tocris, Bristol). Then PMA (50 ng/ml)—for NFAT-luc—plus ionomycin (0.5 µg/ml) (Sigma-Aldrich, St. Louis) was added, followed by a 6 h incubation period.
as §3

Series [6] deals with NF-κB. Description: PMA-induced NF-κB-luc (KBF-luc) activation in Jurkat T-cells. The class given is cell-based. The following applies: 0.5–25 µmol/L. Here is the method:
as §4, §3

The subject of series [7] is RAW264.7 macrophages. Description: IL-17-induced polarization to pro-inflammatory M1 macrophages (qPCR). The following applies: RAW264.7, 0.5 to 10 µmol/L. The class given is cell-based. Here is the method:
To assess the IL-17-induced polarization to pro-inflammatory M1 macrophages, RAW264.7 macrophages (10^6 cells per Petri dish) were incubated for 18 h with or without the test compounds containing 0.1% FBS. Subsequently, they were stimulated for 24 h with recombinant murine IL-17 (50 ng/ml; R&D Systems, Minneapolis). The CB2-receptor agonist JWH-133 was used as a positive control. Then, the messenger RNA (mRNA) was extracted using RNeasy Mini Kits (Qiagen, Hilden), and its purity determined by UV measurements at 260 and 280 nm. The induction of IL-6, IL-1β, CC-chemokine ligand 2 (CCL2), and tumor necrosis factor (TNF)-α mRNA was assessed as markers of pro-inflammatory activity using quantitative real-time polymerase chain reactions (qPCRs).
mRNA reverse transcription in cDNA was performed with iQ™ SYBR Green Supermix and the CFX96 real-time PCR system (Bio-Rad, Hercules). The amplification consisted of a 5 min denaturation at 95°C followed by 40 cycles each of 30 s at 95°C and 30 s at 55°C (annealing). Elongation for 30 s at 72°C came next, followed by a cycle for 10 s at 83°C and finally a cycle for 1 min at 72°C. Calculations were made according to the Livak method by quantifying glyceraldehyde 3-phosphate dehydrogenase (GAPDH) as a reference ([Schmittgen and Livak 2008]). The results are given as multiples of the reference gene ([…]).

Series [8] has as its system primary human monocytes. The series is described as follows: Anti-inflammatory effect on LPS-treated monocytes (ELISA). The class given is cell-based. Particulars: LPS 10 ng/ml, 24 h. Here is the method: Human peripheral blood monocytes were prepared from healthy donors who provided written informed consent at the local blood bank (University Hospital of Freiburg, Germany). Mononuclear cells were isolated by density gradient centrifugation according to standard protocol ([English and Andersen, 1974]) using lymphocyte separation medium, (PAN Biotech, Aidenbach). Cells were resuspended in RPMI-1640 medium (Invitrogen/Thermo Fisher Scientific, Karlsruhe) containing 10% human serum (Hexacell, Berlin). About 5 × 10^5 cells per milliliter were seeded in 24-well plates and incubated at 37°C and 5% CO2. The medium and the non-adherent cells were removed by washing with PBS and fresh RPMI medium, and 1% human serum was added to each well.
To test the anti-inflammatory effect of the test compounds, monocytes were incubated for 30 min with increasing doses of the test compounds. Then lipopolysaccharide (LPS) (10 ng/ml; Escherichia coli, Sigma-Aldrich, St. Louis) was added followed by a 24 h incubation period. The supernatants were removed and the levels of IL-1β, IL-6, IL-8, TNF-α, and prostaglandin E2 (PGE2) determined by enzyme-linked immunosorbent assay (ELISA) performed according to the manufacturer’s instructions (IL-1β from Hiss, Freiburg; IL-6, IL-8, and TNF-α from ImmunoTools, Friesoythe; and PGE2 from Cayman, distributed by Biozol, Hamburg). Stimulation with LPS alone was considered 100%.
On the technique in general: In an ELISA, binding on a coated surface is turned into a signal by an enzyme label.

Entries after “also recorded” stand apart in the source; their conditions may differ.

As usually defined, the Ki is a measure of affinity in units of concentration, obtained from inhibition or displacement.

T1 sequence (P21554 whole entry): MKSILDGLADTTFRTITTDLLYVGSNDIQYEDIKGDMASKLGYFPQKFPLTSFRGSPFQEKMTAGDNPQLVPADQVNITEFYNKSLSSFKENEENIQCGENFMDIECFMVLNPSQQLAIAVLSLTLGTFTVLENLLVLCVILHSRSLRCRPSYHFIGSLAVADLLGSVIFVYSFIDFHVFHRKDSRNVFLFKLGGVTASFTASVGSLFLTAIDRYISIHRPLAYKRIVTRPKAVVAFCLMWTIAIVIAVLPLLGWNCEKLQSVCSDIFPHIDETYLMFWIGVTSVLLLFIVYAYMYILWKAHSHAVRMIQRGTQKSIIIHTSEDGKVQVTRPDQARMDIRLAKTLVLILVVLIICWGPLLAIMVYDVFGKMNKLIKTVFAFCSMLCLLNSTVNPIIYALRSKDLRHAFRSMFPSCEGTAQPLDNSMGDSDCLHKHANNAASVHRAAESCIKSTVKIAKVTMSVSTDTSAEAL
T2 sequence (P34972 whole entry): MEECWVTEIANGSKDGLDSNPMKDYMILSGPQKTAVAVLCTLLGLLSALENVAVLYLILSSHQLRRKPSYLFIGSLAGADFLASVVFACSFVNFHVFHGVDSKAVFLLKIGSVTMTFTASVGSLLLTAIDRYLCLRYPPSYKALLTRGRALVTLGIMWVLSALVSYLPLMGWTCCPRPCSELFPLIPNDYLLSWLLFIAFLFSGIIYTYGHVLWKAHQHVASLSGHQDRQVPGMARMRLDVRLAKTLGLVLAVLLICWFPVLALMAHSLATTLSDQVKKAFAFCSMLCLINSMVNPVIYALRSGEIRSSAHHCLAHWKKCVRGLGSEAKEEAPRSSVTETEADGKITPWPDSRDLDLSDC

In turn, `C=C(C)[C@@H]1CCC(C)=C[C@H]1c1c(O)cc(CCCCC)c(C(=O)OCCCCCC)c1O` [HC (5), n-hexyl-cannabidiolate] had a Ki in series [1] of 2500 nM. In series [2], the inhibitory constant (Ki) was 67 ± 4 nM and the “Selectivity CB2/CB1” value is given as 37.3. In series [3], the “CB1-receptor antagonistic activity (fold induction of CRE-luc)” value is “dose-dependent activity” and the “Effect on CB1” value was “Antagonist”. In series [4], the “CB2-receptor agonistic activity (fold induction of CRE-luc)” value is recorded as “did not activate” and the “Effect on CB2” value is reported as “No activity”. The “Inhibition of PMA/IO-induced NFAT activation” value in series [5] is listed as “no inhibition”. In addition, the “Inhibition of PMA-induced NF-κB activation” value in series [6] was “only marginal”. For the same molecule, in series [7], the “IL-17-stimulated CCL2 mRNA expression” value is “inhibited”, the “IL-17-stimulated IL-1β mRNA expression” value is “inhibited” and the “IL-17-stimulated IL-6 mRNA expression” value is listed as “dose-dependent reduction”. Besides, in series [8], the “LPS-induced IL-1β release” value is given as “inhibited at higher doses”, the “LPS-induced IL-6 release” value was “dose-dependently inhibited”, the “LPS-induced IL-8 release” value is given as “inhibited at higher doses” and the “LPS-induced TNF-α release” value was “dose-dependently inhibited”.

`C=C(C)[C@@H]1CCC(C)=C[C@H]1c1c(O)cc(CCCCC)c(C(=O)OC2CCCCC2)c1O` [CHC (4), cyclohexyl cannabidiolate] displayed an inhibition constant (Ki) in series [1] of 870 ± 100 nM. For the same molecule, in series [2], the Ki was 510 ± 290 nM and the “Selectivity CB2/CB1” value worked out at 1.7. Besides, in series [3], the “CB1-receptor antagonistic activity (fold induction of CRE-luc)” value is recorded as “negative”, the “CB1-receptor agonistic activity (fold induction of CRE-luc)” value is recorded as “activate CB1-receptors” and the “Effect on CB1” value is “Agonist”. Further, in series [4], the “Effect on CB2” value is reported as “Agonist” and the “CB2 agonistic effect compared with positive control WIN” value is reported as “as strong as the same dose of the positive control”. For the same molecule, the “Inhibition of PMA/IO-induced NFAT activation” value in series [5] is on record as “did not inhibit”. Further, the “Inhibition of PMA-induced NF-κB activation” value in series [6] is “did not inhibit”. Moreover, in series [7], the “IL-17-stimulated CCL2 mRNA expression” value is “inhibited” and the “IL-17-stimulated IL-1β mRNA expression” value is given as “inhibited”. Further, in series [8], the Anti-inflammatory effects overall result is “only very weak anti-inflammatory effects”; the “LPS-induced IL-1β release” value is given as “reduced”; the “LPS-induced IL-6 release” value was “moderately and dose-dependently inhibited”; the “LPS-induced IL-8 release” value was “moderately and dose-dependently inhibited”. Besides, the “LPS-induced TNF-α release” value in series [8] was “reduced”.

In series [1], `C=C(C)[C@@H]1CCC(C)=C[C@H]1c1c(O)cc(CCC)c(C(=O)OCCCCCC)c1O` [HCBDV (9), n-hexyl cannabidivarinolate] came in with a Ki of 8.3 ± 0.69 nM. Besides, in series [2], the Ki worked out at 9.9 ± 2.5 nM and the “Selectivity CB2/CB1” value was 0.8. For the same molecule, in series [3], the “CB1-receptor agonistic activity (fold induction of CRE-luc)” value is reported as “agonistic effects” and the “Effect on CB1” value was “Agonist”. Moreover, in series [4], the “CB2-receptor agonistic activity (fold induction of CRE-luc)” value is reported as “no effect” and the “Effect on CB2” value is given as “No activity”.

Molecule `C=C(C)[C@@H]1CCC(C)=C[C@H]1c1c(O)cc(CCC)c(C(=O)OC2CCCCC2)c1O` [CHCBDV (8), cyclohexyl cannabidivarinolate] showed a Ki in series [1] of 13.2 ± 0.9 nM. Further, in series [2], the affinity corresponds to a Ki of 4.62 ± 0.5 nM and the “Selectivity CB2/CB1” value came out at 2.9. Further, in series [3], the “CB1-receptor agonistic activity (fold induction of CRE-luc)” value was “non-selective agonism” and the “Effect on CB1” value is “Agonist”. In series [4], the “CB2-receptor agonistic activity (fold induction of CRE-luc)” value is reported as “non-selective agonism” and the “Effect on CB2” value was “Agonist”.

`C=C(C)[C@@H]1CCC(C)=C[C@H]1c1c(O)cc(CCCCC)c(C(=O)OCCNS(C)(=O)=O)c1O` [NMSC (6), 2-(methylsulfonamido)ethyl cannabidiolate] registered a Ki in series [1] of 270 ± 40 nM. The “preference for the CB2-receptor” value in series [2] (CB2 over CB1) is given as 22.5 fold. Besides, in series [2], the affinity corresponds to a Ki of 12 ± 1 nM and the “Selectivity CB2/CB1” value worked out at 22.5. Besides, in series [3], the “CB1-receptor antagonistic activity (fold induction of CRE-luc)” value is “dose-dependent activity; also recorded: strongly CB1 antagonistic” and the “Effect on CB1” value was “Antagonist”. In addition, in series [4], the “Effect on CB2” value is given as “Agonist” and the “CB2 agonistic effect compared with positive control WIN” value is “similarly strongly agonistic”. Further, the “Inhibition of PMA/IO-induced NFAT activation” value in series [5] is listed as “significantly inhibited”. The “Inhibition of PMA-induced NF-κB activation” value in series [6] is “inhibited”. Also, in series [7], the “IL-17-stimulated CCL2 mRNA expression” value is “reduced compared to the control at all concentrations”; the “IL-17-stimulated IL-1β mRNA expression” value is “inhibited TNF-α and IL-1β only at low doses”; the “IL-17-stimulated IL-6 mRNA expression” value is “co-stimulated”; the “IL-17-stimulated TNF-α mRNA expression” value was “inhibited TNF-α and IL-1β only at low doses”. Moreover, in series [8], the “LPS-induced IL-1β release” value is listed as “enhanced”, the “LPS-induced IL-8 release” value is “significantly reduced”, the “LPS-induced PGE2 release” value is “significantly reduced” and the “LPS-induced TNF-α release” value is “significantly reduced”.

In turn, `C=C(C)[C@@H]1CCC(C)=C[C@H]1c1c(O)cc(CCC)c(C(=O)OCCO)c1O` [2-HECBDV (7), 2-hydroxyethyl cannabidivarinolate] had a Ki in series [1] of 5650 nM. Moreover, in series [2], affinity was put at a Ki of 168 ± 39.4 nM and the “Selectivity CB2/CB1” value came out at 33.6. Also, the “Effect on CB1” value in series [3] is “Antagonist”. Besides, in series [4], the “CB2-receptor agonistic activity (fold induction of CRE-luc)” value is “dose-dependent agonistic effects” and the “Effect on CB2” value is listed as “Agonist”.

These data come from PMC6880192, “Structure–Effect Relationships of Novel Semi-Synthetic Cannabinoid Derivatives” (Frontiers in Pharmacology, 2019).
